# Patent US11660319B2, “Compositions comprising bacterial strains” (priority 2017, dated 2023)
# Tests used:
# HDAC = HDAC inhibition on whole HT-29 cells and HT-29 cell lysate; format: cell-based; conditions: HT-29, whole cells or lysate not told apart in the sentence
# Procedure: Bacterial culture and cell-free supernatant collection Pure cultures of bacteria were grown anaerobically in YCFA broth until they reached their stationary growth phase. Cultures were centrifuged at 5,000×g for 5 minutes and the cell-free supernatant (CFS) was filtered using a 0.2 μM filter (Millipore, UK). 1 mL aliquots of the CFS were stored at −80° C. until use. Sodium butyrate, hexanoic and valeric acid were obtained from Sigma Aldrich (UK) and suspensions were prepared in YCFA broth.
# To investigate which metabolites were responsible for the strain-induced HDAC inhibition, different concentrations of hexanoic acid, valeric acid and sodium butyrate were measured for their HDAC inhibition on whole HT-29 cells and on HT-29 cell lysate.
# Class I HDACs = experiment: Specific HDAC activity analysis, Class I HDACs overall; format: biochemical
# Procedure: Specific HDAC inhibition activity was analysed for HDAC1, 2, 3, 4, 5, 6, 9 using fluorogenic assay kits for each type of HDAC (BPS Bioscience, CA). Assays were conducted according to manufacturer's instructions and each sample were performed in replicates. Cell free supernatants were diluted 1 in 10 and exposed to specific HDAC proteins provided in the kit to maintain consistency between methods.
# The specific HDAC inhibition profile of the test bacteria strain was investigated. Specific HDAC inhibition assays (BPS Bioscience, CA) were carried out for Class I and Class II HDACs. The ability of the bacterial strain to inhibit HDAC enzymes was compared to butyrate, hexanoic and valeric acid (FIGS. 14 and 15).
compound,measurement,setting,value
CCCCC(=O)O [valeric acid],"total HDAC activity, pure substances",HDAC,significant HDAC inhibition
same,"total HDAC activity, pure substances",HDAC; listed as Valeric acid,inhibited
same,Inhibition of Class I HDACs,Class I HDACs,class 1 HDAC inhibitor
